Data from the NIST ThermoML archive (doi:10.1021/je300938w).

Tests used:
[1] = wn = mass fraction of the nth substance listed; settings: 101 kPa, Liquid; for viscosity: Concentric cylinders viscometry; for mass density: Vibrating tube method
[2] = refractive index (Na D-line) (dimensionless); wn = mass fraction of the nth substance listed; settings: 101 kPa, Liquid, Standard Abbe refractometry

CC(O)CN(CC(C)O)CC(C)O (stereo not given) [triisopropanolamine] + O
Settings | mass density, [1] [kg/m3] | refractive index, [2] | viscosity, [1] [mPa·s]
298.15 K, w1 = 0.05 | 1000.88 | 1.34069 | 1.083
298.15 K, w1 = 0.1 | 1004.3 | 1.34815 | 1.36
298.15 K, w1 = 0.15 | 1007.92 | 1.35565 | 1.71
298.15 K, w1 = 0.2 | 1011.66 | 1.36317 | 2.173
298.15 K, w1 = 0.25 | 1015.04 | 1.37063 | 2.857
303.15 K, w1 = 0.05 | 999.387 | 1.34001 | 0.9842
303.15 K, w1 = 0.1 | 1002.67 | 1.34737 | 1.198
303.15 K, w1 = 0.15 | 1006.1 | 1.35487 | 1.486
303.15 K, w1 = 0.2 | 1009.61 | 1.36227 | 1.859
303.15 K, w1 = 0.25 | 1012.73 | 1.36979 | 2.396
308.15 K, w1 = 0.05 | 997.679 | 1.33922 | 0.8883
308.15 K, w1 = 0.1 | 1000.83 | 1.34656 | 1.068
308.15 K, w1 = 0.15 | 1004.08 | 1.35393 | 1.309
308.15 K, w1 = 0.2 | 1007.37 | 1.36133 | 1.612
308.15 K, w1 = 0.25 | 1010.26 | 1.36869 | 2.051
313.15 K, w1 = 0.05 | 995.768 | 1.33853 | 0.8034
313.15 K, w1 = 0.1 | 998.785 | 1.34572 | 0.9574
313.15 K, w1 = 0.15 | 1001.88 | 1.35309 | 1.159
313.15 K, w1 = 0.2 | 1004.97 | 1.36039 | 1.418
313.15 K, w1 = 0.25 | 1007.64 | 1.36764 | 1.774
318.15 K, w1 = 0.05 | 993.671 | 1.33769 | 0.7315
318.15 K, w1 = 0.1 | 996.561 | 1.34484 | 0.8658
318.15 K, w1 = 0.15 | 999.498 | 1.35209 | 1.038
318.15 K, w1 = 0.2 | 1002.41 | 1.35933 | 1.257
318.15 K, w1 = 0.25 | 1004.88 | 1.36653 | 1.553
323.15 K, w1 = 0.05 | 991.401 | 1.3368 | 0.6696
323.15 K, w1 = 0.1 | 994.168 | 1.34387 | 0.7874
323.15 K, w1 = 0.15 | 996.957 | 1.35104 | 0.9361
323.15 K, w1 = 0.2 | 999.698 | 1.35818 | 1.125
323.15 K, w1 = 0.25 | 1002 | 1.36532 | 1.373
328.15 K, w1 = 0.05 | 988.96 | 1.33565 | 0.6164
328.15 K, w1 = 0.1 | 991.613 | 1.34287 | 0.7208
328.15 K, w1 = 0.15 | 994.263 | 1.34999 | 0.8494
328.15 K, w1 = 0.2 | 996.847 | 1.35718 | 1.013
328.15 K, w1 = 0.25 | 998.98 | 1.36417 | 1.224
333.15 K, w1 = 0.05 | 986.362 | 1.33481 | 0.5719
333.15 K, w1 = 0.1 | 988.905 | 1.34176 | 0.6624
333.15 K, w1 = 0.15 | 991.422 | 1.34883 | 0.7754
333.15 K, w1 = 0.2 | 993.857 | 1.35587 | 0.9186
333.15 K, w1 = 0.25 | 995.844 | 1.36291 | 1.104
338.15 K, w1 = 0.05 | 983.585 | 1.3337 | 0.535
338.15 K, w1 = 0.1 | 985.961 | 1.34063 | 0.6134
338.15 K, w1 = 0.15 | 988.426 | 1.34762 | 0.7114
338.15 K, w1 = 0.2 | 990.739 | 1.35461 | 0.8381
338.15 K, w1 = 0.25 | 992.589 | 1.36154 | 0.9991
343.15 K, w1 = 0.05 | 980.297 | 1.33265 | 0.5064
343.15 K, w1 = 0.1 | 982.83 | 1.33943 | 0.57
343.15 K, w1 = 0.15 | 985.312 | 1.34641 | 0.6596
343.15 K, w1 = 0.2 | 987.395 | 1.35319 | 0.7694
343.15 K, w1 = 0.25 | 989.222 | 1.36012 | 0.9113

OCCNCCO [diethanolamine] + O
Settings | mass density, [1] [kg/m3] | refractive index, [2] | viscosity, [1] [mPa·s]
298.15 K, w1 = 0.05 | 1003.46 | 1.3394 | 1.059
298.15 K, w1 = 0.1 | 1009.09 | 1.34654 | 1.27
298.15 K, w1 = 0.15 | 1014.94 | 1.35439 | 1.503
298.15 K, w1 = 0.2 | 1020.92 | 1.36184 | 1.893
298.15 K, w1 = 0.25 | 1027.11 | 1.37017 | 2.376
303.15 K, w1 = 0.05 | 1001.98 | 1.33875 | 0.9498
303.15 K, w1 = 0.1 | 1007.53 | 1.34585 | 1.129
303.15 K, w1 = 0.15 | 1013.27 | 1.35368 | 1.319
303.15 K, w1 = 0.2 | 1019.14 | 1.36108 | 1.649
303.15 K, w1 = 0.25 | 1025.19 | 1.36935 | 2.05
308.15 K, w1 = 0.05 | 1000.3 | 1.33801 | 0.8569
308.15 K, w1 = 0.1 | 1005.77 | 1.34511 | 1.013
308.15 K, w1 = 0.15 | 1011.42 | 1.35288 | 1.174
308.15 K, w1 = 0.2 | 1017.18 | 1.36028 | 1.455
308.15 K, w1 = 0.25 | 1023.11 | 1.36847 | 1.795
313.15 K, w1 = 0.05 | 998.43 | 1.3372 | 0.7792
313.15 K, w1 = 0.1 | 1003.83 | 1.34427 | 0.9142
313.15 K, w1 = 0.15 | 1009.39 | 1.35208 | 1.051
313.15 K, w1 = 0.2 | 1015.05 | 1.35939 | 1.295
313.15 K, w1 = 0.25 | 1020.89 | 1.36756 | 1.585
318.15 K, w1 = 0.05 | 996.373 | 1.33633 | 0.7137
318.15 K, w1 = 0.1 | 1001.71 | 1.3434 | 0.8307
318.15 K, w1 = 0.15 | 1007.2 | 1.35122 | 0.948
318.15 K, w1 = 0.2 | 1012.78 | 1.35862 | 1.161
318.15 K, w1 = 0.25 | 1018.51 | 1.36659 | 1.411
323.15 K, w1 = 0.05 | 994.141 | 1.33539 | 0.653
323.15 K, w1 = 0.1 | 999.439 | 1.34245 | 0.7593
323.15 K, w1 = 0.15 | 1004.85 | 1.35028 | 0.8599
323.15 K, w1 = 0.2 | 1010.35 | 1.35777 | 1.048
323.15 K, w1 = 0.25 | 1016 | 1.36557 | 1.266
328.15 K, w1 = 0.05 | 991.746 | 1.33442 | 0.6017
328.15 K, w1 = 0.1 | 996.992 | 1.34148 | 0.6969
328.15 K, w1 = 0.15 | 1002.36 | 1.34935 | 0.7836
328.15 K, w1 = 0.2 | 1007.78 | 1.3568 | 0.9519
328.15 K, w1 = 0.25 | 1013.36 | 1.36453 | 1.141
333.15 K, w1 = 0.05 | 989.2 | 1.3334 | 0.5596
333.15 K, w1 = 0.1 | 994.401 | 1.34044 | 0.643
333.15 K, w1 = 0.15 | 999.713 | 1.3485 | 0.7178
333.15 K, w1 = 0.2 | 1005.07 | 1.35582 | 0.8673
333.15 K, w1 = 0.25 | 1010.55 | 1.36354 | 1.037
338.15 K, w1 = 0.05 | 986.501 | 1.33234 | 0.5269
338.15 K, w1 = 0.1 | 991.668 | 1.33938 | 0.5932
338.15 K, w1 = 0.15 | 996.929 | 1.34755 | 0.6619
338.15 K, w1 = 0.2 | 1002.23 | 1.3547 | 0.799
338.15 K, w1 = 0.25 | 1007.44 | 1.36244 | 0.9543
343.15 K, w1 = 0.05 | 983.659 | 1.33122 | 0.5002
343.15 K, w1 = 0.1 | 988.796 | 1.3382 | 0.5534
343.15 K, w1 = 0.15 | 993.878 | 1.34633 | 0.6185
343.15 K, w1 = 0.2 | 999.25 | 1.35356 | 0.7459
343.15 K, w1 = 0.25 | 1004.41 | 1.3614 | 0.8922
